This is an account of results in ChEMBL document CHEMBL3091405, “Novel glycosylated endomorphin-2 analog produces potent centrally-mediated antinociception in mice after peripheral administration” (Bioorg Med Chem Lett, 2013).

Series [1] relates to Mus musculus. Description: Antinociceptive activity in mouse assessed as prolongation time to jump at 3 mg/kg, iv by hot plate test. Type of series: functional, organism-based. Further details: dose 3 mg/kg. (Thermal pain tests record how soon the animal reacts.)
For series [2], the target named is Mu-type opioid receptor (Cavia porcellus, UniProt P97266). Put plainly: Agonist activity at mu opioid receptor in guinea pig ileum. Type of series: tissue-based.
Sequence of Mu-type opioid receptor (Cavia porcellus, UniProt P97266) (P97266 whole entry): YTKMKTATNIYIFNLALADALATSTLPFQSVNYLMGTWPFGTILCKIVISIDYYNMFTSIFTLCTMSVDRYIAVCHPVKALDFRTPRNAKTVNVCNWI
Series [3] addresses Mu-type opioid receptor (Rattus norvegicus, UniProt P33535). Description: Displacement of [3H]DAMGO from Wistar rat brain mu opioid receptor by liquid scintillation counting analysis.
Series [4] relates to Mus musculus. Put plainly: Antinociceptive activity in mouse assessed as prolongation time to jump at 3 mg/kg, iv by hot plate test in presence of opioid receptor antagonist NALME. Format: functional, organism-based. Further details: dose 3 mg/kg.
The subject of series [5] is Plasma. Description: Drug metabolism in mouse plasma assessed as degycosylated metabolite formation at 3 mg/kg, iv after 10 mins by mass spectrometric analysis. Further details: dose 3 mg/kg, route intravenous. Particulars: in vivo. Format: ADME, organism-based.
The subject of series [6] is Plasma. Put plainly: Drug metabolism in mouse plasma assessed as glucuronic metabolite formation at 3 mg/kg, iv after 10 mins by mass spectrometric analysis. Format: ADME, organism-based. Further details: dose 3 mg/kg, route intravenous. Conditions: in vivo.

Active and inactive are the calls of the source. No cut-off for these calls is given here. Residues, ends and D or L forms follow the SMILES beside them. *: point of attachment. X1 = CC(=O)OC[C@H]1O[C@@H](*)[C@H](OC(C)=O)[C@@H](OC(C)=O)[C@@H]1OC(C)=O; βGlc = OC[C@H]1O[C@@H](*)[C@H](O)[C@@H](O)[C@@H]1O

One may read the IC50 as the concentration at which inhibition is half-maximal. Read a low IC50 as greater potency in that assay.

Sequence of Mu-type opioid receptor (Rattus norvegicus, UniProt P33535) (P33535 whole entry): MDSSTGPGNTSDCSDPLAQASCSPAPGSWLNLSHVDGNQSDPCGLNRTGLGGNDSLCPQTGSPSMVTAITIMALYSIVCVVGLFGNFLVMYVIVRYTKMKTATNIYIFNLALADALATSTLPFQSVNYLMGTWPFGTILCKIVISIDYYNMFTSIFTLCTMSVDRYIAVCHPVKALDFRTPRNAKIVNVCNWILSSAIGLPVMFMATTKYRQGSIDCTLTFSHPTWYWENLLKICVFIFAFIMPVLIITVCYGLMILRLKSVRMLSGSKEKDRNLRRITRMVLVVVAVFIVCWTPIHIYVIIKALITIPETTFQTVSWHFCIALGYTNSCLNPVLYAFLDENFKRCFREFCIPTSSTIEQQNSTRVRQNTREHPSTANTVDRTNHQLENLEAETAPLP

For `NC(=O)[C@H](Cc1ccccc1)NC(=O)[C@H](Cc1ccccc1)NC(=O)[C@@H]1CCCN1C(=O)[C@@H](N)Cc1ccc(O)cc1`, the outcome in series [1] was inactive.

With `CC(=O)OC[C@H]1O[C@@H](Oc2ccc(C[C@H](NC(=O)[C@@H]3CCCN3C(=O)[C@@H](N)Cc3ccc(O)cc3)C(=O)N[C@@H](Cc3ccccc3)C(N)=O)cc2)[C@H](OC(C)=O)[C@@H](OC(C)=O)[C@@H]1OC(C)=O` (H-YPY(X1)F-NH2), the IC50 in series [2] and in series [3] was greater than 1 µM throughout.

Turning to `NC(=O)[C@H](Cc1ccccc1)NC(=O)[C@H](Cc1ccc(O[C@@H]2O[C@H](CO)[C@@H](O)[C@H](O)[C@H]2O)cc1)NC(=O)[C@@H]1CCCN1C(=O)[C@@H](N)Cc1ccc(O)cc1` (H-YPY(βGlc)F-NH2), the outcome in series [4] and in series [1] was Active. The Drug metabolism entry in series [5] and in series [6] was “Active” in each case. Also, the 50% inhibitory concentration (IC50) is 0.0161 µM in series [2] and 0.0732 µM in series [3].
